# Assay results published in patent US20250228831A1, “METHOD TO PREVENT AND TREAT GLAUCOMA BY CALCIUM CHANNEL BLOCKERS, ANGIOTENSIN CONVERTING ENZYME INHIBITORS, AND ANGIOTENSIN RECEPTOR BLOCKERS” (priority 2022, published 2025).
# What was measured:
# Type in all cases: in vivo, human
# glaucoma [1] = experiment: Prevention of recurrence in a patient successfully treated for glaucoma, one eye treated and the other left untreated; settings: untreated eye shows signs of recurrence
# Excerpt: A composition comprising the ACE inhibitor enalapril is directly applied to the vitreous surface of one eye while the other eye is left untreated.
# A composition comprising the angiotensin receptor blocker losartan is directly applied to the vitreous surface of one eye while the other eye is left untreated.
# A composition comprising the ACE inhibitor enalapril is applied to the eye by intravitreal or intraocular injection while the other eye is left untreated.
# A composition comprising the angiotensin receptor blocker losartan is applied to the eye by intravitreal or intraocular injection while the other eye is left untreated.
# glaucoma [2] = experiment: Treatment of a patient diagnosed with glaucoma, one eye treated and the other left untreated
# Excerpt: (§1) A patient is diagnosed with glaucoma.
# A patient is diagnosed with glaucoma. A composition comprising the ACE inhibitor enalapril is directly applied to the vitreous surface of one eye while the other eye is left untreated.
# A patient is diagnosed with glaucoma. A composition comprising the angiotensin receptor blocker losartan is directly applied to the vitreous surface of one eye while the other eye is left untreated.
# as §1
# A patient is diagnosed with glaucoma. A composition comprising the ACE inhibitor enalapril is applied to the eye by intravitreal or intraocular injection while the other eye is left untreated.
# A patient is diagnosed with glaucoma. A composition comprising the angiotensin receptor blocker losartan is applied to the eye by intravitreal or intraocular injection while the other eye is left untreated.
# primary form of glaucoma = experiment: Ramiprilat formulation given to the eye of a patient with a primary form of glaucoma
# Protocol: In this example, a patient with a primary form of glaucoma is administered a topical formulation comprising ramiprilat to the eye. […] The patient's primary form of glaucoma is therefore treated by the […] formulation.
# In this example, a patient with a primary form of glaucoma is administered an injectable formulation comprising ramiprilat to the posterior chamber of the eye. […] The patient's primary form of glaucoma is therefore treated by the […] formulation.
# [3] = composition applied by intravitreal or intraocular injection
# [4] = composition directly applied to the vitreous surface of one eye
# [5] = injectable formulation to the posterior chamber of the eye
Compound,"recurrence of glaucoma, treated eye versus untreated eye (glaucoma [1]; [3])","recurrence of glaucoma, treated eye versus untreated eye (glaucoma [1]; [4])","symptoms of glaucoma, treated eye versus untreated eye (glaucoma [2]; [3])","symptoms of glaucoma, treated eye versus untreated eye (glaucoma [2]; [4])",capillary networks and capillary blood supply to the eye (primary form of glaucoma; [5]),intraocular pressure (primary form of glaucoma; [5]),optic nerve (primary form of glaucoma; [5]),capillary networks and capillary blood supply to the eye (primary form of glaucoma; topical formulation to the eye),intraocular pressure (primary form of glaucoma; topical formulation to the eye),optic nerve (primary form of glaucoma; topical formulation to the eye)
CCOC(=O)[C@H](CCc1ccccc1)N[C@@H](C)C(=O)N1CCC[C@H]1C(=O)O [enalapril],not develop glaucoma,not develop glaucoma,reduced symptoms of glaucoma,reduced symptoms of glaucoma,,,,,,
CCCCc1nc(Cl)c(CO)n1Cc1ccc(-c2ccccc2-c2nn[nH]n2)cc1 [losartan],not develop glaucoma,not develop glaucoma,reduced symptoms of glaucoma,reduced symptoms of glaucoma,,,,,,
Ramiprilat,,,,,grows capillary networks and increases the capillary blood supply,reduction in intraocular pressure,repair to the optic nerve,grows capillary networks and increases the capillary blood supply,reduction in intraocular pressure,repair to the optic nerve
